Test results as given in patent publication US11123272B2, “Cosmetic blends” (Symrise AG, priority 2016, dated 2021).

Molecular target: T1, human TREK-1 receptor (Homo sapiens, UniProt O95069)
T1 construct: expressed in transfected cells
T1 sequence (O95069 1-426): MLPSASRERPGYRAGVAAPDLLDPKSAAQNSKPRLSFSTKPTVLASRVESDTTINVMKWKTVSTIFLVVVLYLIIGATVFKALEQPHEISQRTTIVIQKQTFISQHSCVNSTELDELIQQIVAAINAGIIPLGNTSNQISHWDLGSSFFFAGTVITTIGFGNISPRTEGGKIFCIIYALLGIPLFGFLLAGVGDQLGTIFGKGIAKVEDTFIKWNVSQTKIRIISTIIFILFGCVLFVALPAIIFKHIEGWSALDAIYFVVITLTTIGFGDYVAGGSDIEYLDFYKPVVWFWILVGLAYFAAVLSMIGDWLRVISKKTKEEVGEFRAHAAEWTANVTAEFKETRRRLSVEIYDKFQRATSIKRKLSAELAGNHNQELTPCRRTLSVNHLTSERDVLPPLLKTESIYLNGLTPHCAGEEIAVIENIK
Assay: TREK receptor screening: TREK-1 mediated currents by manual patch clamp in transfected frog oocytes
Assay type: cell-based
Settings: at 1 mMol; None = 1.000
Description: The human TREK-1 receptor is a temperature sensitive, mechano-gated potassium channels, present in human skin and neuronal cells. It is known to be involved in the signaling of temperature sensation. Here it cooperates with other ion channels in the relevant cell types.
To screen for TREK-1 receptor channel blockers, frog oocyte were transfected to transiently overexpress the human TREK-1 receptor. A substance database was screened on the cells. Read out was TREK-1medited currents, detected by manual patch clamp.

| SMILES | Blockade of TREK-1 receptor, F.I. |
| --- | --- |
| CCCCCCCCCCC(O)CO (centres unmarked) [1,2-Dodecandiol] | 0.733 |
| CNCCC(Oc1ccc(C(F)(F)F)cc1)c1ccccc1 (centres unmarked) [Fluoxetine, reference compound] | 0.679 |

More lines, now with the values ahead:

| Blockade of TREK-1 receptor, F.I. | SMILES |
| --- | --- |
| 0.773 | CCCCCCCCC(O)CO (centres unmarked) [1,2-Decandiol] |
| 0.942 | CCCCC(O)CO (centres unmarked) [1,2-Hexandiol] |
| 0.855 | CCCCCCC(O)CO (centres unmarked) [1,2-Octandiol] |
